Earlier results, collected in patent publication US12636262B2, “Process for the preparation of topical formulation” (Neuheit Pharma Technologies Pvt. Ltd, priority 2019, dated 2026).

Conditions: reported

- oral bioavailability: 40-60%
SMILES: CC(=O)Oc1cccc2c1C(=O)c1c(OC(C)=O)cc(C(=O)O)cc1C2=O [Diacerein, 4,5-diacetyloxy-9,10-dioxo-anthracene-2-carboxylic acid]
